According to patent publication US20240148722A1, “SMALL MOLECULES THAT BIND TO TDP-43 FOR THE TREATMENT OF ALS AND RELATED DISORDERS” (Biohaven Therapeutics Ltd., priority 2021, published 2024):

Tests used:
TDP-43 1-260 = TDP-43 1-260 (Homo sapiens, UniProt Q13148); assay: TDP-43 alpha-screen assay with bt-TAR32; format: binding; details: bt-TAR32 0.125 nM; 3 h at room temperature; read-out: Activity (μM) in the TDP-43-DNA alpha-screen assay
Method: Alpha-screen assay. […] Briefly, assays contained TDP-43 1-260 (15 ng/mL, 0.27 nM), 10 mg/mL of both streptavidin donor beads and anti-GST acceptor beads with various concentrations of bt-TAR32 (˜18 to +14 in the HIV1 LTR) and test compound in a final volume of 20 mL of 25 mM Tris, 0.1% CHAPS, pH 7.4 in white, opaque low volume 384-well plates. After 3 h incubation at room temperature, the AlphaScreen signal was measured using a Synergy 2 plate reader (Biotek, Winooski, VT). […] Nonspecific binding was determined in the presence of 10 mM bt-TDP43 and was less than 10% of total binding. IC50 values were obtained from nonlinear regression fits of the data to a one-site binding model using Graph Pad Prism, version 5.0 (GraphPad Software, San Diego, CA). Comparison of competitive inhibition and mixed type inhibition models were evaluated using the F-test on global fits of the data also in Graph Pad Prism, version 5.0.

TDP-43 [1] = biological target: T1, TDP-43 (Homo sapiens, UniProt Q13148); details: using bt-(TG)6 and not bt-TAR32; Biochimie, 2012, 94, 1974-1981; cited from earlier work
T1 sequence (Q13148 whole entry): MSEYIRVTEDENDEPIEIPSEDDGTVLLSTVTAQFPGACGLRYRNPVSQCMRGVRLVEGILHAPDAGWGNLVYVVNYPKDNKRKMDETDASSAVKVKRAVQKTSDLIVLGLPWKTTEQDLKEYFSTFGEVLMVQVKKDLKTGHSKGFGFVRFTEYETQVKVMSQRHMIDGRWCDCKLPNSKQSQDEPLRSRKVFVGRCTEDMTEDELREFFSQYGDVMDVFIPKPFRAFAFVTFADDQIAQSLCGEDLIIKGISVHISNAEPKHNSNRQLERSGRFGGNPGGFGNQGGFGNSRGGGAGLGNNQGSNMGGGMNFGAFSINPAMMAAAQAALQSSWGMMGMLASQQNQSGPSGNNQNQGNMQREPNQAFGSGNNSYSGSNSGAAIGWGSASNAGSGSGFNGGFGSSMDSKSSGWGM

TDP-43 [2] = biological target: T1, TDP-43; details: cited from earlier work

TDP-43 1-260, sequence (Q13148 1-260): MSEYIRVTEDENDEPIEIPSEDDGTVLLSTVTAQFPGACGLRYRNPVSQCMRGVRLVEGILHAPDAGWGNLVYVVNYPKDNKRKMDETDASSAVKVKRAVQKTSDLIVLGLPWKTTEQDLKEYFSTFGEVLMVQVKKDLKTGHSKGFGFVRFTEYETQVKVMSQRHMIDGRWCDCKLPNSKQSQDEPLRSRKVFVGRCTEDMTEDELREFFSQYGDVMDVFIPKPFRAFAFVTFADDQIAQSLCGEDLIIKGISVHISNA

Molecule | IC50 (TDP-43 1-260) [µM] | also measured
COc1ccc(-c2cc(NCCCN(C)CCCN)cc(-c3cnc(N4CCOCC4)s3)n2)cc1 [Example 52, N^1-(3-aminopropyl)-N^3-(2-(4-methoxyphenyl)-6-(2-morpholinothiazol-5-yl)pyridin-4-yl)-N^1-methylpropane-1,3-diamine] | 5.58 | –
CN(CCCN)CCCNc1cc(-c2ccc(C3CCNCC3)cc2)nc(-c2ccc(N3CCNCC3)cc2)c1 [Example 8] | 0.05 | –
COc1ccc(-c2cc(NCCCN(C)C)cc(-c3ccc(N4CCOCC4)cc3)n2)cc1 [Example 59] | 2.04 | –
CN(CCCN)CCCNc1cc(-c2ccc(CN3CCNCC3)cc2)nc(-c2ccc(N3CCNCC3)cc2)c1 [Example 16] | 0.07 | –
COc1ccc(-c2cc(NCCCN(C)CCCN)cc(-c3ccc(N4CCN(C)C(F)C4)cc3)n2)cc1 (stereo not drawn) [Example 76] | 0.23 | –
COc1ccc(-c2cc(NCC3CCN(CC4CCNC4)CC3)cc(-c3ccc(N4CCN(C)CC4)cc3)n2)cc1 (stereo not drawn) [Example 25] | 0.09 | –
COc1ccc(-c2cc(NCC3CCN(CC4CCNC4)C3)cc(-c3ccc(N4CCN(C)CC4)cc3)n2)cc1 (stereo not drawn) [Example 21] | 0.08 | –
COc1ccc(-c2cc(N(C)CCCN(C)C)cc(-c3ccc(N4CCN(C)CC4)cc3)n2)cc1 [Example 42, N-(3-(dimethylamino)propyl)-2-(4-methoxyphenyl)-N-methyl-6-(4-(4-methylpiperazin-1-yl)phenyl)pyridin-4-amine] | 0.46 | –
COc1ccc(-c2cc(N[C@H]3C[C@H](N)C3)cc(-c3cccc(OCCN4CCCC4)c3)n2)cc1 [Example 88, trans-N1-(2-(3-(2-(pyrrolidin-1-yl)ethoxy)phenyl)-6-(4-methoxyphenyl)pyridin-4-yl)cyclobutane-1,3-diamine] | 0.18 | –
COc1ccc(-c2cc(NCCCN(C)CCCN)cc(-c3ccc(N4CCN(CC5CNC5)CC4)cc3)n2)cc1 [Example 14] | 0.07 | –
CN1CCN(c2cncc(-c3cc(NCCCN)cc(-c4ccc(N5CCNCC5)cc4)n3)c2)CC1 [Example 45] | 1.07 | –
COc1ccc(-c2cc(NCCCN3CCC(CN)C3)cc(-c3ccc(N4CCNCC4)cc3)n2)cc1 (stereo not drawn) [Example 26] | 0.1 | –
COc1ccc(-c2cc(NCCCN(C)CCCN)cc(-c3ccc(-c4ccncc4)cc3)n2)cc1 [Example 33] | 0.13 | –
COc1ccc(-c2cc(NCCCN(C)CCCN)cc(CCC3CC3)n2)cc1 [Example 71, N-{3-[(3-aminopropyl)(methyl)amino]propyl}-2-(2-cyclopropylethyl)-6-(4-methoxyphenyl)pyridin-4-amine] | 0.57 | –
COc1ccc(-c2cc(NCCCN(C)C)cc(-c3cccc(OCCN4CCCC4)c3)n2)cc1 [Example 91] | 0.16 | –
COc1ccc(-c2cc(NCCCN(C)C)cc(-c3ccc(OCCCN(C)C)nc3)n2)cc1 [Example 81] | 0.72 | –
COc1ccc(-c2cc(NC3CCNCC3)cc(-c3ccc(N4CCN(C)CC4)cc3)n2)cc1 [Example 9, 2-(4-methoxyphenyl)-6-(4-(4-methylpiperazin-1-yl)phenyl)-N-(piperidin-4-yl)pyridin-4-amine] | 0.05 | –
6-(4-(2-(pyrrolidin-1-yl)ethoxy)phenyl)-N-(piperidin-4-yl)-1H-indazol-3-amine [Example 95] | 2.4 | –

Molecule | IC50 (TDP-43 1-260) [µM] | also measured
COc1ccc(-c2cc(NC3CCN(CCCN)CC3)cc(-c3ccc(N4CCN(C)CC4)cc3)n2)cc1 [Example 5, N-(1-(3-aminopropyl)piperidin-4-yl)-2-(4-methoxyphenyl)-6-(4-(4-methylpiperazin-1-yl)phenyl)pyridin-4-amine] | 0.04 | –
COc1ccc(-c2cc(NC3CCNCC3F)cc(-c3ccc(N4CCN(C)CC4)cc3)n2)cc1 (stereo not drawn) [Example 68] | 0.89 | –
COc1ccc(-c2cc(NCCCN3CCC4NCCC43)cc(-c3ccc(N4CCNCC4)cc3)n2)cc1 (stereo not drawn) [Example 65] | 1.32 | –
COc1ccc(-c2cc(NCCCN(C)CCCN)nc(-c3ccc(N4CCNCC4)cc3)n2)cc1 [Example 78, N-{3-[(3-aminopropyl)(methyl)amino]propyl}-6-(4-methoxyphenyl)-2-[4-(piperazin-1-yl)phenyl]pyrimidin-4-amine] | 0.2 | –
COc1ccc(-c2cc(NCCCN(C)CCCN)cc(-c3ccc(OCCCN(C)C)nc3)n2)cc1 [Example 35, N-{3-[(3-aminopropyl)(methyl)amino]propyl}-6′-[3-(dimethylamino)propoxy]-6-(4-methoxyphenyl)-[2,3′-bipyridin]-4-amine] | 0.15 | –
COc1ccc(-c2cc(NCCCN)cc(-c3ccc(N4CCNCC4)cc3)n2)cc1 [Example 31, N^1-(2-(4-methoxyphenyl)-6-(4-(piperazin-1-yl)phenyl)pyridin-4-yl)propane-1,3-diamine] | 0.12 | –
COc1ccc(-c2cc(NCCCN(C)CCCN)cc(-c3cnn(C4CCN(C)CC4)c3)n2)cc1 [Example 13, N-{3-[(3-aminopropyl)(methyl)amino]propyl}-2-(4-methoxyphenyl)-6-[1-(1-methylpiperidin-4-yl)-1H-pyrazol-4-yl]pyridin-4-amine] | 0.065 | –
CN(CCCN)CCCNc1cc(-c2ccc(N3CCNCC3)cc2)nc(-c2ccc(N3CCNCC3)nc2)c1 [Example 4] | 0.04 | –
COc1ccc(-c2cc(NCC3CCNC3)cc(-c3ccc(N4CCN(C)CC4)cc3)n2)cc1 (stereo not drawn) [Example 55] | 3.56 | –
COc1ccc(-c2cc(NCCCN(C)C)cc(-c3ccc(C[C@@H](N)C(=O)O)cc3)n2)cc1 [Example 62] | 1.85 | –
N^1-(4-(4-methoxyphenyl)-6-(4-(piperazin-1-yl)phenyl)pyridin-2-yl)-N^3,N^3-dimethylpropane-1,3-diamine [Example 79] | 1.09 | –
COc1ccc(-c2cc(NCCCN3CCCCC3)cc(-c3cc(OC)cc(OC)c3)n2)cc1 [Example 46] | 6.93 | –
COc1ccc(-c2cc(NCCCN(C)C)c3ccccc3n2)cc1 [Compound I] | – | activity in a TDP-43 alpha-screen (TDP-43 [1]): active; caspase-7 cleavage of TDP-43 (TDP-43 [2]): promoted
CN(CCCN)CCCNc1cc(-c2ccc(N3CCNCC3)cc2)nc(-c2ccc3c(c2)CCNC3)c1 [Example 28] | 0.11 | –
COc1ccc(-c2cc(NCC3CN(C)CCO3)cc(-c3ccc(N4CCN(C)CC4)cc3)n2)cc1 (stereo not drawn) [Example 56] | 3.24 | –
COc1ccc(-c2cc(NCC3CCCN(C)C3)cc(-c3ccc(N4CCN(C)CC4)cc3)n2)cc1 (stereo not drawn) [Example 67] | 1.17 | –
COc1ccc(-c2cc(NCCCN(C)CCCN)cc(-c3c(C)noc3C)n2)cc1 [Example 47] | 4.64 | –
